Where two headings read alike, the source gives them in different places.
Experiments:
[1] = system: beta-adrenoceptor; conditions: cited from earlier work
[2] = system: eye; conditions: cited from earlier work
[3] = system: human corneal epithelial cells; conditions: reported in Burgalassi et al. Tox. Lett. 2001; cited from earlier work
[4] = design: species or system Lewis female rats; conditions: rat, in vivo
Procedure: Animal studies were carried out on Lewis female rats (6-8 weeks of age) from Harlan Laboratories Inc. (Rehovot, Israel). In some cases as noted below, the rats were anesthetized with ketamin/xylazine […].
ELISA tests were performed using commercially available ELISA kits from Assay Designs (Ann Arbor, Mich., USA) in accordance with the manufacturer's instructions in the usual way in conjunction with a BioTek EL-310 plate reader (Cambridge Scientific Products, Cambridge, Mass., USA).
Pharmaceutical compositions were administered by instillation in the eyes of rats or administered as a mist using the nebulization device described above at a rate of 10 μl minute^−1. Subsequent to administration and a waiting time, the rats were sacrificed.
Subsequent to sacrifice, serum, cerebrospinal fluid (CSF, 50-100 μl), retina, optic nerve, sclera, and aqueous humor (AH) of an animal were harvested. The retina, optic nerve, and sclera of each animal was individually homogenized in 120 ul assay buffer on ice and centrifuged. The serum, CSF, AH and the homogenized retina, optic nerve and sclera were assayed for the presence of leptin using ELISA.
Data below is expressed as pg ml^−1 for serum, CSF and AH and as pg mg^−1 for tissue (determined using the Lowry method). […]

[5] = reported in Saettone et al. Int. J. Pharma. 1996

CC(C)(C)NCC(O)COc1cccc2c1CCCC2=O.Cl (single isomer, unassigned; (-)) [Levobunolol, (−)-5-[3-(tert-Butylamino)-2-hydroxypropoxy]-3,4-dihydro-1(2H)-naphthalenone hydrochloride]
potency in beta-blocking activity relative to its dextro isomer [1]: greater than 60 times

Brij-99
irritation to the eye ([2]; reported in Morgan, J. Ocular Pharm. Ther. 1995): strongly irritation to the eye

C[C@@H]1CC[C@@]2(OC1)O[C@H]1[C@@H](O)[C@H]3[C@@H]4CC[C@H]5C[C@@H](O[C@@H]6O[C@H](CO)[C@H](O[C@@H]7O[C@H](CO)[C@@H](O)[C@H](O[C@@H]8OC[C@@H](O)[C@H](O)[C@H]8O)[C@H]7O[C@@H]7O[C@H](CO)[C@H](O)[C@H](O[C@@H]8O[C@H](CO)[C@@H](O)[C@H](O)[C@H]8O)[C@H]7O)[C@H](O)[C@H]6O)[C@H](O)C[C@]5(C)[C@H]4CC[C@]3(C)[C@H]1[C@@H]2C [digitonin]
irritation to the eye [2, 5]: strongly irritating to the eye

BL-9
irritation to the eye [2, 5]: strongly irritating to the eye

CC(=O)O[C@H]1C[C@@]2(C)[C@@H](C[C@@H](O)[C@H]3[C@@]4(C)CC[C@@H](O)[C@@H](C)[C@@H]4CC[C@@]32C)/C1=C(\CCC=C(C)C)C(=O)O [sodium fusidate]
irritation to the eye ([2]; reported in Furrer et al. AAPS PharmSci 2002): strongly irritating to the eye

CCCCCCCCCCCCCCCC[n+]1ccccc1 [cetylpyridinium chloride]
toxicity to human corneal epithelial cells relative to Brij-78 and EDTA [3]: less toxic to human corneal epithelial cells than Brij-78 but more toxic than EDTA

leptin
leptin concentration in optic nerve and sclera relative to retina [4]: markedly higher than in the retina

benzalkonium chloride
toxicity to human corneal epithelial cells relative to Brij-78 and EDTA [3]: less toxic to human corneal epithelial cells than Brij-78 but more toxic than EDTA
irritation to the eye [2, 5]: strongly irritating to the eye

— US20140171490A1, “Method and Device for Ophthalmic Administration of Active Pharmaceutical Ingredients” (PHARMALIGHT INC., priority 2005, published 2014)
